Reference: US20120053112A1, “METHODS AND COMPOSITIONS RELATED TO THE REGULATION OF GOBLET CELL DIFFERENTIATION, MUCUS PRODUCTION AND MUCUS SECRETION” (CHILDREN'S HOSPITAL MEDICAL CENTER, priority 2009, published 2012)
Values joined by “and” are separate entries in the source; they are usually repeats but may differ in a detail not shown here. Equal entries are not always repeated. “Also recorded” adds a separate entry of the source.

B1: IL-13: mouse IL-13 cytokine purchased from R&D System, used for in vitro culture (protein, UniProt P20109 19-131, looked up)
Interleukin-13: APGPVPRSVSLPLTLKELIEELSNITQDQTPLCNGSMVWSVDLAAGGFCVALDSLTNISNCNAIYRTQRILHGLCNRKAPTTVSSLPDTKIEVAHFITKLLSYTKQLFRHGPF

Legend:
[1] = test system: MUC5AC mRNA in Flag-SPDEF-GFP HBEC cells; experiment: Effect of inhibitors on MUC5AC expression in SPDEF-expressing HBEC cells on air-liquid interface (real-time PCR); type: cell-based, human; details: for Inhibitor concentrations at which MUC5AC mRNA was not detected: SPDEF-expressing HBEC cells; for Concentration of dose curve with no detection of MUC5AC mRNA (starred): Flag-SPDEF-GFP HBEC on ALI, inhibitor added upon induction of ALI, RNA after 48 hours, TAQMAN real-time PCR, FIG. 19
Description: Inhibitors were added to media upon induction of ALI and RNA was isolated after 48 hours. (A) p38 MAPK inhibitor (SB239063) dose curve: 0.5, 1, 2.5, 5*, 10* μM. (B) PI3K inhibitor (LY294002) dose curve: 0.5, 1, 2.5, 5*, 10*, 25* μM. (C) mTor inhibitor (Rapamycin) dose curve: 1, 5, 10, 25, 50*, 100* nM. *=No detection of MUC5AC mRNA at these concentrations as determined by TAQMAN® real-time PCR (Applied Biosystems, Foster City, Calif.).
Expression levels of MUC5AC were measured in SPDEF-expressing HBEC cells treated with the p38 MAPK inhibitor SB239063. MUC5AC mRNA was quantitated by QRT-PCR. MUC5AC mRNA was not detected at inhibitor concentrations ≧5 uM.
Expression levels of MUC5AC in SPDEF-expressing HBEC cells treated with rapamycin. MUC5AC mRNA was not detected at inhibitor concentrations ≧50 nM.
Expression levels of MUC5AC in SPDEF-expressing HBEC cells treated with the PI3K inhibitor LY294002. MUC5AC mRNA was not detected at inhibitor concentrations ≧[…].
Using Agr2 as a readout of SPDEF, the effects of p38 MAPK inhibitor SB239063, PI3K inhibitor LY294002, and mTor inhibitor rapamycin in human bronchiolar epithelial cells (HBEC) were investigated. In vitro preparations were maintained at the ALI for 48 hours prior to taking Agr2 measurements.
To test for small molecule inhibitors, HBEC cells expressing lentiviral SPDEF constructs were treated with the p38 MAP kinase inhibitor, SB239063. MUC5AC mRNA was quantitated by QRT-PCR. SPDEF-dependent MUC5AC mRNA was inhibited by the p38 MAP kinase inhibitor (FIG. 22).

[2] = test system: mouse Agr2 1.6 Kb promoter; details: U0126 at 20 μM and 10 μM; 36 hour transfection, aSTEpC; DMSO vehicle control
Description: Thirty-six hour transfection of adult sheep tracheal epithelial cells (aSTEpC) with Agr2-luciferase and expression vectors encoding SPDEF and Foxa3. MAPK inhibitor (U0126) was added at a concentration of 20 μM and 10 μM (DMSO as vehicle control).
Thirty-six hour transfection of adult sheep tracheal epithelial cells (aSTEpCs) with Agr2-luciferase and expression vectors encoding SPDEF and Foxa3 were performed. A MAPK inhibitor (U0126) was added at a concentration of 20 μM and 10 μM (using DMSO as a vehicle control). MAPK inhibitor (U0126) effects on the activity of the mouse Agr2 1.6 Kb promoter were analyzed.
Promoter reporter constructs were co-transfected into primary sheep tracheal epithelial cells (aSTEpC) with CMV-13-Gal plasmid (Clontech, Palo Alto, Calif.) and/or transcription factor expression plasmid using Lipofectamine 2000 (Invitrogen, Carlsbad, Calif.) as previously described^6. Growth media was changed into a differentiation media (MTEC/Nu, mouse tracheal epithelial cells culture media, 2% Nu serum)^39 after transfection. Cell lysates were collected for luciferase activity assay 24 hours after transfection. All transfection assays were performed with primary sheep adult tracheal epithelial cells at passage 3 or 4. Relative promoter activities were normalized to transfection efficiency assayed by β-galactosidase activity and shown as mean±S.D.

[3] = test system: SPDEF in primary mouse tracheal epithelial cells; experiment: IL-13 induction of SPDEF in primary mouse tracheal epithelial cells at air-liquid interface (immunohistochemistry); type: cell-based; details: IL-13 10 ng/ml; ALI culture, 3 and 7 days; FIG. 14
Description: Immunohistochemical staining of SPDEF in primary mouse tracheal epithelial cells cultured under an air-liquid interface (ALI) condition in the presence or absence of IL-13 (10 ng/ml). Expression of SPDEF was detected after 3 days (upper panel) and 7 days (lower panel) after ALI culture. Scale bar: 50 μm.
The air-liquid interface culture of mouse tracheal epithelial cells was performed as previously described^39. The mouse IL-13 used for in vitro culture was purchased from R&D System (Minneapolis, Minn.). The air-liquid interface culture of the HEBCs was similar to procedures previously described^40.

Row | Molecule | Inhibitor concentrations at which MUC5AC mRNA was not detected ([1]; QRT-PCR, FIGS. 22, 25) | Concentration of dose curve with no detection of MUC5AC mRNA (starred) [1] | further results
1 | O=c1cc(N2CCOCC2)oc2c(-c3ccccc3)cccc12 [LY294002] | ≥ 10 µM |  | 
2 | CO[C@H]1C[C@@H]2CC[C@@H](C)[C@@](O)(O2)C(=O)C(=O)N2CCCC[C@H]2C(=O)O[C@H]([C@H](C)C[C@@H]2CC[C@@H](O)[C@H](OC)C2)CC(=O)[C@H](C)/C=C(\C)[C@@H](O)[C@@H](OC)C(=O)[C@H](C)C[C@H](C)/C=C/C=C/C=C/1C [Rapamycin] |  | 50 nM and 100 nM | Inhibitor concentrations at which MUC5AC mRNA was not detected ([1]; FIG. 24): ≥ 0.05 µM
3 | COc1nccc(-c2c(-c3ccc(F)cc3)ncn2C2CCC(O)CC2)n1 (centres unmarked) [SB239063] | ≥ 5 µM | 5000 nM and 10000 nM | Effect on SPDEF-mediated MUC5AC (Muc5A/C) activation / mRNA ([1]; HBEC in vitro, result in words): highly active; also recorded: inhibited
4 | N#CC(=C(/N)Sc1ccccc1N)/C(C#N)=C(\N)Sc1ccccc1N [U0126] |  |  | Effect on activation of SPDEF or Agr2 (Agr2 promoter luciferase activity) [2]: inhibited
5 | B1 |  |  | SPDEF expression [3]: dramatically induced
